Patent EP0533790B1, “NEW SALT FORM OF 5-DIFLUOROMETHOXY-2- [3,4-DIMETHOXY-2-PYRIDYL)METHYLSULFINYL-1H-BENZIMIDAZOLE” (BYK GULDEN LOMBERG CHEMISCHE FABRIK GMBH, priority 1990, dated 1991)

Assays:
Assay type in all cases: physicochemical
[1] = Limiting solubility in phosphate buffer, measured in the presence of undissolved solid; conditions: 22°C; for Grenzlöslichkeit: pH 7,4, in the presence of undissolved solid
Solubility in acetone = conditions: solvent acetone (for the 1,5-Hydrat also other lower ketones)
[2] = Hygroscopicity / water uptake on storage
Description: So nimmt es bei Temperaturen von 20 bzw. 30°C und einer relativen Luftfeuchtigkeit von 80 % bei der Lagerung kein Wasser auf (keine Umwandlung in das 1,5-Hydrat!).

Row | Compound | Grenzlöslichkeit [1] | Löslichkeit in Aceton (Solubility in acetone) | Grenzlöslichkeit relative to the 1,5-Hydrat ([1]; pH 7,4, ratio versus the 1,5-Hydrat) | Hygroskopizität [2] | Wasseraufnahme bei der Lagerung ([2]; 20 or 30°C, relative humidity 80 %, storage)
1 | COc1ccnc(C[S+]([O-])c2nc3ccc(OC(F)F)cc3[nH]2)c1OC (stereo not shown) [1,5-Hydrat, 5-Difluormethoxy-2-[(3,4-dimethoxy-2-pyridyl)methylsulfinyl]-1H-benzimidazol-Natriumsalz-1,5-hydrat, reference compound] | 6,2 x 10^-4 mol/l | leichtlöslich |  |  | 
2 | COc1ccnc(C[S+]([O-])c2nc3ccc(OC(F)F)cc3[nH]2)c1OC (stereo not shown) [Monohydrat, 5-Difluormethoxy-2-[(3,4-dimethoxy-2-pyridyl)methylsulfinyl]-1H-benzimidazol-Natriumsalz-monohydrat] | 0.0013 mol/L | schwer löslich | etwa doppelt so große | nicht hygroskopisch | kein Wasser
